For one assay, the system named is HT-29. In words: Cytotoxicity against human HT-29 cells after 6 days by MTT method. It is filed as functional. The settings on record: HT-29, 144 h, read-out: ED50 (the source's name).
In a further assay the test system is P388. As to the kind of experiment: Cytotoxicity against mouse P388 cells by MTT method. The settings on record: read-out: ED50 (the source's name). It counts as functional.

Converted amounts (≈) assume the structure as drawn.

For the molecule `C/C1=C\CC[C@@]2(C)O[C@@H]2/C=C(/C(C)(C)O)CC[C@@]2(C)O[C@@H]2CC1` [SINUGIBBEROL], the EC50 was determined as 0.5 µg/mL (≈ 1.56 µM) in the assay with HT-29 and 11.7 µg/mL (≈ 36.5 µM) in the assay on P388.

The record behind these values is ChEMBL document CHEMBL1159276, “Sinugibberol, a new cytotoxic cembranoid diterpene from the soft coral Sinularia gibberosa” (1995).
